Measured values: ChEMBL document CHEMBL4808172, “Structure-Activity Relationship of Heterocyclic P2Y14 Receptor Antagonists: Removal of the Zwitterionic Character with Piperidine Bioisosteres” (J Med Chem, 2021)
The source made the active and inactive calls. No cut-off for these calls is given here.

Experiments:
P2Y purinoceptor 14 = biological target: T1, P2Y purinoceptor 14 (Homo sapiens, UniProt Q15391); assay: cell-based
T1 sequence (Q15391 whole entry): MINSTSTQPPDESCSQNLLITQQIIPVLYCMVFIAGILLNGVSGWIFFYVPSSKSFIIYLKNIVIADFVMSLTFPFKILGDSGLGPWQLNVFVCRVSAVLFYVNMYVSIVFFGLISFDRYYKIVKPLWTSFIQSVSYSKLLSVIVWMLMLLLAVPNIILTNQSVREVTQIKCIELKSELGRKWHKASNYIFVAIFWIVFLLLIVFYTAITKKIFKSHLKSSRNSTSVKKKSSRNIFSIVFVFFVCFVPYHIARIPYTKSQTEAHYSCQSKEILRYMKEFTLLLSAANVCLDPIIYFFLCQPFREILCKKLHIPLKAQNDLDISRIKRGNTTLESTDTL

[1] = Stability of compound in aqueous medium after 24 hrs in absence of PLE by HPLC analysis; type: physicochemical; conditions: buffer
liver carboxylesterase [2] = biological target: T2, liver carboxylesterase (Sus scrofa, UniProt Q29550); assay: Drug metabolism in pH 7.5 HEPES buffer assessed as porcine liver esterase-mediated compound hydrolysis by measuring half life measured up to 120 mins by HPLC analysis; type: ADME, tissue-based; conditions: pig
T2 sequence (Q29550 whole entry): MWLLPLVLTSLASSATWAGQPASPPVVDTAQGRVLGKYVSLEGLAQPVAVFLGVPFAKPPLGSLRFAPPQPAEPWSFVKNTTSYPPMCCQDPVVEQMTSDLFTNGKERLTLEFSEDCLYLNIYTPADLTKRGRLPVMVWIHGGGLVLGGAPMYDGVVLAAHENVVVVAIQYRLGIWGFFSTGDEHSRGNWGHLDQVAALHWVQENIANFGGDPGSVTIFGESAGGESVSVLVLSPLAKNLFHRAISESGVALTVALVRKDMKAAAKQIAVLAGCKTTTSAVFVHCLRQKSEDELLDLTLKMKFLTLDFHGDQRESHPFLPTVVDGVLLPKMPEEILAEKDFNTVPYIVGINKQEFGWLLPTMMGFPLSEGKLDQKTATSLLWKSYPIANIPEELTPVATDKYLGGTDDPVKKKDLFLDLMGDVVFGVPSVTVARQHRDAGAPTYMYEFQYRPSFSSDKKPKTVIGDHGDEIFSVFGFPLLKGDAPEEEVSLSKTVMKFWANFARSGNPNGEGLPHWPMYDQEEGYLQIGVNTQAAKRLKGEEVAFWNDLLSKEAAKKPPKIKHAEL

D(1A) dopamine receptor = D(1A) dopamine receptor (Homo sapiens, UniProt P21728); assay: Binding affinity to D1 receptor (unknown origin)
Chain of D(1A) dopamine receptor (P21728 whole entry): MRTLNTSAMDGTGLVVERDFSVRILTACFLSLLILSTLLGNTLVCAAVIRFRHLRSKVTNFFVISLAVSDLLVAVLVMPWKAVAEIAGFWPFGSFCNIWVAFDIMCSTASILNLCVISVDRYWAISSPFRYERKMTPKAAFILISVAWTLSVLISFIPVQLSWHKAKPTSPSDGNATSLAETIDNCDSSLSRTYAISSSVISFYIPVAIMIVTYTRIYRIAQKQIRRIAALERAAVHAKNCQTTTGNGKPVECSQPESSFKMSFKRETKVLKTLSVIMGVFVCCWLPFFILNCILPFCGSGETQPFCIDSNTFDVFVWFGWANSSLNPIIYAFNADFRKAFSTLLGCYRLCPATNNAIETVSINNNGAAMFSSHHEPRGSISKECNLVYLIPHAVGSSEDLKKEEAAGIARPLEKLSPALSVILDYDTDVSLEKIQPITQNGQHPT

[3] = biological target: T3, Alpha-2B adrenergic receptor (Homo sapiens) (UniProt P18089); assay: Inhibition of alpha2b (unknown origin) at 10 uM relative to control
T3 sequence (whole entry): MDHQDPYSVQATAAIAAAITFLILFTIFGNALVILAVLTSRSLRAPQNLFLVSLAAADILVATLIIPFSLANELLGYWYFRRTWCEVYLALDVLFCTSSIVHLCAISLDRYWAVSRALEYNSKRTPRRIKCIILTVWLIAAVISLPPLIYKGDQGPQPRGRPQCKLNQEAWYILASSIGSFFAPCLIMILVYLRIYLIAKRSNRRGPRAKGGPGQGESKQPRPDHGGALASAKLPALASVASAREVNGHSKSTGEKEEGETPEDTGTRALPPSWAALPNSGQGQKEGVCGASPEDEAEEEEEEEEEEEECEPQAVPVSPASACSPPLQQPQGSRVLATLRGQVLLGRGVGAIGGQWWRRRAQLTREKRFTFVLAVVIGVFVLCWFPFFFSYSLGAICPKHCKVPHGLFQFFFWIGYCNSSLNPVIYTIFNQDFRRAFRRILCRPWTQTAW

D(1B) dopamine receptor = D(1B) dopamine receptor (Homo sapiens, UniProt P21918); assay: Binding affinity to D5 receptor (unknown origin)
Chain of D(1B) dopamine receptor (P21918 whole entry): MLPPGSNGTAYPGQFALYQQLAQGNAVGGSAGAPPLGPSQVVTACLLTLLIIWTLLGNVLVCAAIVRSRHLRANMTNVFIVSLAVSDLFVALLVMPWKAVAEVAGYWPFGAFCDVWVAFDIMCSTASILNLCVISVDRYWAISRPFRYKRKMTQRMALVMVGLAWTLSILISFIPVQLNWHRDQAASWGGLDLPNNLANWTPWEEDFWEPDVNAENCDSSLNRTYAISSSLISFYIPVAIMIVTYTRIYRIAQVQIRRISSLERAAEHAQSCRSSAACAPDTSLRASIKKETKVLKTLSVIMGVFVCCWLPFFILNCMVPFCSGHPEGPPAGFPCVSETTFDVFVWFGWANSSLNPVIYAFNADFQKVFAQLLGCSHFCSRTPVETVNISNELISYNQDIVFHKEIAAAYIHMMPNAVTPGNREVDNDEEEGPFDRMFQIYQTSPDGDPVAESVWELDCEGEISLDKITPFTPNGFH

[4] = biological target: Sigma non-opioid intracellular receptor 1 (Homo sapiens, UniProt Q99720); assay: Binding affinity to sigma 1 receptor (unknown origin)
Chain of Sigma non-opioid intracellular receptor 1 (Q99720 whole entry): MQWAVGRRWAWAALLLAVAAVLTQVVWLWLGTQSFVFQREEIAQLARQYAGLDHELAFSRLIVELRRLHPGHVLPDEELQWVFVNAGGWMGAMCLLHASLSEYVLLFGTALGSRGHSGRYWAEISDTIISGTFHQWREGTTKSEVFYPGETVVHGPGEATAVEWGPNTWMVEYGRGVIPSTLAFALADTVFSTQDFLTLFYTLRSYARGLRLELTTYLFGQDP

[5] = biological target: 5-hydroxytryptamine receptor 1D (Homo sapiens) (UniProt P28221); assay: Inhibition of 5HT1D (unknown origin) at 10 uM relative to control
Chain of 5-hydroxytryptamine receptor 1D (Homo sapiens) (P28221 whole entry): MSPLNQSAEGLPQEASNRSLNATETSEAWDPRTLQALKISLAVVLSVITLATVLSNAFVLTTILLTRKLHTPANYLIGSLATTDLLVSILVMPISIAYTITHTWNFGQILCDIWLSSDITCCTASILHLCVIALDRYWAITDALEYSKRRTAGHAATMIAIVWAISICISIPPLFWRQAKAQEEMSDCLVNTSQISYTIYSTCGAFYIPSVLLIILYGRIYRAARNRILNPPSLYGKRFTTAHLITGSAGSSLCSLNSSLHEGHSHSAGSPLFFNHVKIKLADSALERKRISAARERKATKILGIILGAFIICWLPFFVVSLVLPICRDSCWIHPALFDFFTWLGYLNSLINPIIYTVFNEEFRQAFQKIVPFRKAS

Histamine H4 receptor = Histamine H4 receptor (Homo sapiens, UniProt Q9H3N8); assay: Binding affinity to H4 receptor (unknown origin)
Chain of Histamine H4 receptor (Q9H3N8 whole entry): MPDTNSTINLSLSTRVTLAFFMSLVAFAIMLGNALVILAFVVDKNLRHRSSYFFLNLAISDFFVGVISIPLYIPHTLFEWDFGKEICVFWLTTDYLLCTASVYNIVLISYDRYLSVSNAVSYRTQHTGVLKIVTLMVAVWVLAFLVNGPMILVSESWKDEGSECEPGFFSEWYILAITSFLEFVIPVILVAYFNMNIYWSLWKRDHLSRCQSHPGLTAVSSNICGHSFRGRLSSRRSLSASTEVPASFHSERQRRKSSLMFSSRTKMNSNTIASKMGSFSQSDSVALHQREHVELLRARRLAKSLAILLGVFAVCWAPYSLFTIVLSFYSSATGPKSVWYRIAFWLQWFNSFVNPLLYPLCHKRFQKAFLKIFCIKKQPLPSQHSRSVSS

[6] = biological target: T4, Alpha-2A adrenergic receptor (Homo sapiens, UniProt P08913); assay: Binding affinity to alpha2a (unknown origin)
T4 sequence (P08913 whole entry): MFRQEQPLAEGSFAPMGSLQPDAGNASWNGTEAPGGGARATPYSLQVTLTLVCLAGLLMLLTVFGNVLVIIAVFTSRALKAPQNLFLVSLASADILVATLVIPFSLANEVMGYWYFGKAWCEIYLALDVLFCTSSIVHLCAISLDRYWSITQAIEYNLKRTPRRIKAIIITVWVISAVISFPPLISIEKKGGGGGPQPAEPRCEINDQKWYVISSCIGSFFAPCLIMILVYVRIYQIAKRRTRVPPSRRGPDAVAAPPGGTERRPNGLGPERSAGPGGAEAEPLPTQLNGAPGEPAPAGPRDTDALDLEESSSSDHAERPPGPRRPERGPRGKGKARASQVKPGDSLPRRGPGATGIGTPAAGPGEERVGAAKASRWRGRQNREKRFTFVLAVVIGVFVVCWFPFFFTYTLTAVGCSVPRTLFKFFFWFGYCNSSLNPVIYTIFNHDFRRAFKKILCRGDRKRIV

[7] = biological target: T5, Sigma intracellular receptor 2 (Homo sapiens, UniProt Q5BJF2); assay: Inhibition of sigma 2 receptor (unknown origin) at 10 uM relative to control
T5 sequence (Q5BJF2 whole entry): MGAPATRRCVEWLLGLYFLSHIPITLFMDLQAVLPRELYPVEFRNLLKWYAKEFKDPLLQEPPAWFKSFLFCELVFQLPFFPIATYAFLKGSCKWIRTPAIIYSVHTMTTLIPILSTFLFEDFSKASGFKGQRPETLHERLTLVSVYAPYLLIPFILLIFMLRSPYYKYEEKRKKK

[8] = biological target: T6, Alpha-1B adrenergic receptor (Homo sapiens, UniProt P35368); assay: Binding affinity to alpha1b (unknown origin)
T6 sequence (P35368 whole entry): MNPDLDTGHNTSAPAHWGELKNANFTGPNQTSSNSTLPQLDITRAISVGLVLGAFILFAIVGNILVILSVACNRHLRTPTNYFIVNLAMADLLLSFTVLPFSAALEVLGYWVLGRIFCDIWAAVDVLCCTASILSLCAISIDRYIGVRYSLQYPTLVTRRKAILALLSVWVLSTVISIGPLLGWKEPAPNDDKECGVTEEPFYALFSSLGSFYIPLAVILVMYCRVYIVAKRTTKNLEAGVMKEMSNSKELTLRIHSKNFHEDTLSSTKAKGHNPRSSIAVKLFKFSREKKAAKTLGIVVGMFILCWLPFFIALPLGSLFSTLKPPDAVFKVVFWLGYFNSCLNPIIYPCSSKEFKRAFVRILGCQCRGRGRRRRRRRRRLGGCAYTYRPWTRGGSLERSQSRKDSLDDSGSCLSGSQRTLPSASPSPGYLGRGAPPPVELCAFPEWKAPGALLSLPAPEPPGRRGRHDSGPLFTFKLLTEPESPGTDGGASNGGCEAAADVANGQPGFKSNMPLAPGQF

[9] = biological target: T5, Sigma intracellular receptor 2; assay: Binding affinity to sigma 2 receptor (unknown origin)
[10] = biological target: Delta-type opioid receptor (Homo sapiens, UniProt P41143); assay: Binding affinity to DOR (unknown origin)
Chain of Delta-type opioid receptor (P41143 whole entry): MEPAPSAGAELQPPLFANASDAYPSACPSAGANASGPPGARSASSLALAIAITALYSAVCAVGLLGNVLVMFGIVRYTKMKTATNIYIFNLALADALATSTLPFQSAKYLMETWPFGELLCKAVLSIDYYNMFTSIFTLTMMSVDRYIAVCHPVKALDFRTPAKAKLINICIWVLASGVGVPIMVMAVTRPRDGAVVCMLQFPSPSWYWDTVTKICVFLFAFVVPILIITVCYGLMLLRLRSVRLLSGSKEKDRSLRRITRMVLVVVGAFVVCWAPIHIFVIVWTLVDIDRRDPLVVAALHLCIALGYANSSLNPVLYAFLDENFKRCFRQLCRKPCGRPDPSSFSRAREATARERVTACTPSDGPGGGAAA

liver carboxylesterase [11] = biological target: T2, liver carboxylesterase; assay: Drug metabolism in pH 7.5 HEPES buffer assessed as porcine liver esterase-mediated compound hydrolysis measured up to 72 hrs by HPLC analysis; type: ADME; conditions: pig, read-out: Drug degradation
liver carboxylesterase [12] = biological target: T2, liver carboxylesterase; assay: Drug metabolism in pH 7.5 HEPES buffer assessed as porcine liver esterase-mediated compound hydrolysis by measuring half life measured up to 72 hrs by HPLC analysis; type: ADME, tissue-based; conditions: pig
Mus musculus = assay: Antiinflammatory activity in mouse model of ovalbumin/Aspergillus-induced allergic asthma assessed as reduction in eosinophil counts in BALF at 20 umol/kg, ip administered 30 mins prior to allergen challenge and measured after 2 days post challenge; type: functional, organism-based; conditions: dose 20.0 µmol/kg, time 2.0 day

## O=C(O)c1cc(-c2ccc(Br)cc2)cc(-n2cc(-c3ccc(C(F)(F)F)cc3)nn2)c1
P2Y purinoceptor 14
  IC50: > 10 µM

## CN(C)C(=O)COC(=O)c1cc(-c2ccc(C3CCNCC3)cc2)cc(-n2cc(-c3ccc(C(F)(F)F)cc3)nn2)c1
[1]
  Stabilty: Stable
Liver carboxylesterase [2]
  half-life: 20.2 min

## CC(C)(C)OC(=O)NC1(c2ccc(-c3cc(C(=O)O)cc(-n4cc(-c5ccc(C(F)(F)F)cc5)nn4)c3)cc2)CCC1
P2Y purinoceptor 14
  IC50: > 10 µM

## O=CN1CCC(c2ccc(-c3cc(C(=O)O)cc4cc(-c5ccc(C(F)(F)F)cc5)ccc34)cc2)CC1
D(1A) dopamine receptor
  Ki: 0.52 µM
[3]
  inhibition: 82%
D(1B) dopamine receptor
  Ki: 1.44 µM
[4]
  Ki: 0.759 µM
[5]
  inhibition: 81%
Histamine H4 receptor
  Ki: 1.7 µM
[6]
  Ki: 3.97 µM
[7]
  inhibition: 84%
[8]
  Ki: 2.65 µM

## O=C(O)c1cc(-c2ccc(-c3nnn[nH]3)cc2)cc(-n2cc(-c3ccc(C(F)(F)F)cc3)nn2)c1
[9]
  Ki: 2.26 µM
[10]
  Ki: 3.3 µM

## CC(=O)N1CCC(c2ccc(-c3cc(C(=O)OCC(=O)N(C)C)cc4cc(-c5ccc(C(F)(F)F)cc5)ccc34)cc2)CC1
[1]
  Stabilty: Stable
[9]
  Ki: 0.59 µM
Liver carboxylesterase [11]
  metabolised at 72 h: 27.2%
Liver carboxylesterase [12]
  half-life: > 72 h
Mus musculus
  Activity: Active
